# Test results from patent US12528784B2, “Alkynyl-(heteroaryl)-carboxamide HCN1 inhibitors” (Hoffmann-La Roche Inc., priority 2019, dated 2026).
# What was measured:
# Type in all cases: cell-based
# HCN1 = target: T1, HCN1 (Homo sapiens, UniProt O60741); assay: HCN1 automated patch clamp current inhibition assay (Ionworks Barracuda); details: HEK-293 cells stably expressing HCN1; current inhibition during a hyperpolarizing pulse of -100 mV
# T1 construct: expressed in transfected cells
# T1 sequence (O60741 1-890): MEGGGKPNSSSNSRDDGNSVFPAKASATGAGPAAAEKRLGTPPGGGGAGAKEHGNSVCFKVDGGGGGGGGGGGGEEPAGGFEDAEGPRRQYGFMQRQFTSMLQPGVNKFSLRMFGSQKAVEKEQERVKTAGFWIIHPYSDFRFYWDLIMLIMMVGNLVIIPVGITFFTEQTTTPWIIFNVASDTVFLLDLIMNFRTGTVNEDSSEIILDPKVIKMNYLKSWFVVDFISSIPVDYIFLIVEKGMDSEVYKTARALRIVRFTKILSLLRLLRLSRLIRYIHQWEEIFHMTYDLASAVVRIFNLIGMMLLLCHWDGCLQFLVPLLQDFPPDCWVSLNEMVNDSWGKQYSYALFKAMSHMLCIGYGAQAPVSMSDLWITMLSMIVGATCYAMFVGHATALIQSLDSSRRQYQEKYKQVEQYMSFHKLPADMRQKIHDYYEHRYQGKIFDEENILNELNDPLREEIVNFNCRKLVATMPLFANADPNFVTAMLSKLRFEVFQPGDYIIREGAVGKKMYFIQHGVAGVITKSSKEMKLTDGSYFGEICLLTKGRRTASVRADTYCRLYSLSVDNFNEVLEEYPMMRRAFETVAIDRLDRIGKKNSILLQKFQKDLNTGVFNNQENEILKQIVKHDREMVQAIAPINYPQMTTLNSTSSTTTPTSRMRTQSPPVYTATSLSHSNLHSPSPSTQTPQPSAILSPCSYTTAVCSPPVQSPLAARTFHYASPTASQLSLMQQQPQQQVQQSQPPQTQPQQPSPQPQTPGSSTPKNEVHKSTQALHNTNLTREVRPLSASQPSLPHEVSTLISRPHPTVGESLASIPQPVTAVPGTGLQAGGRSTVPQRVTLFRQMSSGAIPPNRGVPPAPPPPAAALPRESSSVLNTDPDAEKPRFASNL
# Protocol: (§1) In vitro, high-throughput cellular electrophysiology was employed to detect voltage- and use-dependence of compounds in single concentration screening and IC50 determination for library and medicinal chemistry profiling compounds in 384 well plates.
# (§2) Cell cultures were maintained in DMEM/F12 cell growth media containing FBS and appropriate antibiotics at 37° C., 5% CO2 for a maximum of 20 passages. At a time point of 40-72 hours prior to assay, the expression of HCN protein in the cells is induced by addition of tetracyclin. Cells may be incubated at 27° C. for 2-24 hours of induction. […] Cells were harvested at 80% confluency and resuspended in extracellular buffer and added to wells. A freshly prepared Escin solution was added to intracellular buffer and applied to establish whole cell recording via perforated patch clampling by APC.
# (§3) Currents through activated channels were measured directly by APC by employing hyperpolarizing voltage steps. The activation window was increased and stabilized by the addition of cell permeable Br-cAMP. Baselines were established for both use- and voltage-dependence protocols using a −30 mV holding potential and multiple test pulses at −100 mV or by 20 mV steps from −120 to 0 mV, respectively. Test compounds were added after baseline recordings followed by a 10 min incubation, voltage-dependency protocol recording, and use-dependency recording. Data was corrected for baseline and rundown (well based) and normalized for % inhibition (plate based). Five previously reported HCN inhibitors of varying potencies and selectivities and zatebradine were used for run to run and plate to plate quality controls. […] Percent inhibition was analysed at −80, −100, −120 mV of the voltage-dependency protocol and at pulse 0 and 50 of the use-dependency protocols. Selectivity was assessed against HCN2, HCN3, and HCN4 overexpressing cell lines using similar methods. As HCN4 has a slower activation than the other HCN channels, activation was extended to achieve steady state activation.
# HCN3 = target: T2, HCN3 (Homo sapiens, UniProt Q9P1Z3); assay: HCN3 automated patch clamp current inhibition assay (Ionworks Barracuda); details: HEK-293 cells stably expressing HCN3; current inhibition during a hyperpolarizing pulse of -100 mV
# T2 construct: expressed in transfected cells
# T2 sequence (Q9P1Z3 1-774): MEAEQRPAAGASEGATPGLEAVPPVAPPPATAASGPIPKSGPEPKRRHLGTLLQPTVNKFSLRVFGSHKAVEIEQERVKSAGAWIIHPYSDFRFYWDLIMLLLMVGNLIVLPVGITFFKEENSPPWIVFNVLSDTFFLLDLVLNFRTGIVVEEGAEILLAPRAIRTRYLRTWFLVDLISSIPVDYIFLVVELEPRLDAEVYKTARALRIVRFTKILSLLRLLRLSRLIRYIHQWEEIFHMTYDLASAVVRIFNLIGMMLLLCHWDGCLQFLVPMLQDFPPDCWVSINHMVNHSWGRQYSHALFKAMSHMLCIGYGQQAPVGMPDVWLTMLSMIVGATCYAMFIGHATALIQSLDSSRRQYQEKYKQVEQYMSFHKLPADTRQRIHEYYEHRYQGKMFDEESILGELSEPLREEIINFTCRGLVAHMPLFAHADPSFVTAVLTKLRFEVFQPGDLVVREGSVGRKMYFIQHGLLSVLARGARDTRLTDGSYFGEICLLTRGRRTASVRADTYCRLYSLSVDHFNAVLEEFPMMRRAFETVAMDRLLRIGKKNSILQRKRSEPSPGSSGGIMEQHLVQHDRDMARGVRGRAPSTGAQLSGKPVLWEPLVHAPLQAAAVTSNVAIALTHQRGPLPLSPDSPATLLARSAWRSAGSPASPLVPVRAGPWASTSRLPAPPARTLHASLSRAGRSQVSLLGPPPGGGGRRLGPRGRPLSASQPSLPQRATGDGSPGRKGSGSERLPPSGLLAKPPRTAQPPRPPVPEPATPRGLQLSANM
# Protocol: as §1, §2, §3
# HCN4 = target: T3, HCN4 (Homo sapiens, UniProt Q9Y3Q4); assay: HCN4 automated patch clamp current inhibition assay (Ionworks Barracuda); details: HEK-293 cells stably expressing HCN4; current inhibition during a hyperpolarizing pulse of -100 mV
# T3 construct: expressed in transfected cells
# T3 sequence (Q9Y3Q4 1-1203): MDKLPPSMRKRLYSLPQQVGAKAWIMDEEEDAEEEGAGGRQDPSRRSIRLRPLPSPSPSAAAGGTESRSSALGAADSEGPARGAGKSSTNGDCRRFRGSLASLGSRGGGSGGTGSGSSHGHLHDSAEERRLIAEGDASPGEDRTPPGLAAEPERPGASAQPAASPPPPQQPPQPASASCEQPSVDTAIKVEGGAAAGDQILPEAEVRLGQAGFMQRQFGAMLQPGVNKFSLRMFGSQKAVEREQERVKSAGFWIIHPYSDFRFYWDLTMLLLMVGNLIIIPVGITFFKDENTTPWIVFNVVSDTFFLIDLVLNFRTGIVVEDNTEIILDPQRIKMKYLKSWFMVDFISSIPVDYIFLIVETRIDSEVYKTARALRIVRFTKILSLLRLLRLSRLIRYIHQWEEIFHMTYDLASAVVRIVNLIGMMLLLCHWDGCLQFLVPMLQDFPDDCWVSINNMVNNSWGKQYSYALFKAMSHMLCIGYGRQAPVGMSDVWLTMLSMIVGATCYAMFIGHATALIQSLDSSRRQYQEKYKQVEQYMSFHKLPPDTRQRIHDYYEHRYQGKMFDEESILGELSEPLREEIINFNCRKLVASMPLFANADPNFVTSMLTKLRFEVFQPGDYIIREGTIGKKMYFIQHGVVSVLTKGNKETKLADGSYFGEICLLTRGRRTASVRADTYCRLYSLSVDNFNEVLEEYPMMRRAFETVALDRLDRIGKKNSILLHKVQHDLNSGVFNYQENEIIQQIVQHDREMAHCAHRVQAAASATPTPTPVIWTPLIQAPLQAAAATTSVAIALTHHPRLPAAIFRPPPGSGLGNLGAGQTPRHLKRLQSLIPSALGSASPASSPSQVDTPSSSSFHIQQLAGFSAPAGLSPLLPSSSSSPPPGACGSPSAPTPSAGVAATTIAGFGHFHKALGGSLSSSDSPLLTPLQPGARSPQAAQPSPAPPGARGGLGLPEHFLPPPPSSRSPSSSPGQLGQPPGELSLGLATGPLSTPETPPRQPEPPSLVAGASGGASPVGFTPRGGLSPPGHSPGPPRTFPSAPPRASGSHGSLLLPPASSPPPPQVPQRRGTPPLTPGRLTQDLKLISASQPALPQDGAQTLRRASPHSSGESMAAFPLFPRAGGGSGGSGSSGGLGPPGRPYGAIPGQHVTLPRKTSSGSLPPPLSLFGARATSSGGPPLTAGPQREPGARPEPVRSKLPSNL
# Protocol: as §1, §2, §3
Structure (SMILES),IC50 (HCN1) [µM],IC50 (HCN3) [µM],IC50 (HCN4) [µM]
"Cc1ccc(-c2c(C(N)=O)nc(C#Cc3cccc(Cl)c3)n2C)cn1 [Example 34, 2-[2-(3-Chlorophenyl)ethynyl]-1-methyl-5-(6-methyl-3-pyridyl)imidazole-4-carboxamide]",0.099,4.9,> 40
"Cc1ccc(-n2c(C(N)=O)nc(C#Cc3cccc(Cl)n3)c2C)cn1 [Example 14, 4-((6-Chloropyridin-2-yl)ethynyl)-5-methyl-1-(6-methylpyridin-3-yl)-1H-imidazole-2-carboxamide]",1.94,> 40,–
"Cc1cncc(-n2c(C(N)=O)nc(C#Cc3ccnc(Cl)c3C)c2C)c1 [Example 25, 4-[2-(2-Chloro-3-methyl-4-pyridyl)ethynyl]-5-methyl-1-(5-methyl-3-pyridyl)imidazole-2-carboxamide]",0.125,20.5,> 40
Cc1ccc(-c2c(C(N)=O)nc(C#Cc3ccnc(Cl)c3C)n2C)cn1 [Example 33],0.947,> 40,> 40
"Cc1ccc(-c2c(C(N)=O)nc(C#Cc3cccc(Cl)c3C)n2C)cn1 [Example 44, 2-[2-(3-Chloro-2-methyl-phenyl)ethynyl]-1-methyl-5-(6-methyl-3-pyridyl)imidazole-4-carboxamide]",0.229,> 40,> 40
"Cc1c(C#Cc2ccnc(Cl)c2)nc(C(N)=O)n1-c1ccc(F)cc1F [Example 41, 4-(2-Chloro-pyridin-4-ylethynyl)-1-(2,4-difluoro-phenyl)-5-methyl-1H-imidazole-2-carboxylic Acid Amide]",17.4,> 40,–
"Cc1ccc(-n2c(C(N)=O)nc(C#Cc3cccc4c3OCO4)c2C)cn1 [Example 13, 4-(Benzo[d][1,3]dioxol-4-ylethynyl)-5-methyl-1-(6-methylpyridin-3-yl)-1H-imidazole-2-carboxamide]",0.903,> 40,–
"Cc1ccc(-n2c(C(N)=O)nc(C#Cc3ccccc3)c2C)cc1 [Example 37, 5-Methyl-4-(phenylethynyl)-1-(p-tolyl)-1H-imidazole-2-carboxamide]",3.12,> 40,–
"Cc1ccc(-n2cc(C#Cc3ccnc(Cl)c3)nc2C(N)=O)cn1 [Example 43, 4-((2-Chloropyridin-4-yl)ethynyl)-1-(6-methylpyridin-3-yl)-1H-imidazole-2-carboxamide]",2.52,> 40,–
"Cc1ccc(-n2c(C(N)=O)nc(C#Cc3cc(Cl)ccn3)c2C)cn1 [Example 18, 4-((4-Chloropyridin-2-yl)ethynyl)-5-methyl-1-(6-methylpyridin-3-yl)-1H-imidazole-2-carboxamide]",4.1,> 40,–
"Cc1ccc(-n2c(C(N)=O)nc(C#Cc3ccncc3)c2C)cn1 [Example 21, 5-Methyl-1-(6-methyl-3-pyridyl)-4-[2-(4-pyridyl)ethynyl]imidazole-2-carboxamide]",11.2,> 40,–
